The values below come from publication PMC11984388, “A brain-accessible peptide modulates stroke inflammatory response and neurotoxicity by targeting BDNF-receptor TrkB-T1 specific interactome” (Theranostics, 2025).

Residues, ends and D or L forms follow the SMILES beside them. *: point of attachment. Biotin = O=C1N[C@H]2[C@H](CS[C@H]2CCCCC(=O)*)N1

The nature of series [1]: Peptide detection in brain cortex after photothrombotic ischemia. Type of series: in vivo. Particulars: 3 nmol/g i.v. 1 h after damage, male and female mice sacrificed 5 h post-stroke; Fluorescein Avidin D (Fig 5C). The procedure:
(§1) Vehicle (saline), Bio-TMyc or Bio-TT1Ct (3 nmol/g) were retro-orbitally injected in mice one hour after induction of photothrombotic damage or, alternatively, undamaged animals. In the first case, animals were sacrificed 5 h after damage induction while, the second group was sacrificed 30 min after peptide administration. The details of brain fixation and cryoprotection for peptide visualization and/or immunohistochemistry are provided in the Supplementary material. […]
(§2) Finally, the sa mple s were mounted in Prolong Diamond. The images were acquired using an inverted Zeiss LSM 710 laser confocal microscope (Jena, Germany) with a 40x or 63x Plan-Apochromatic oil immersion objective. Images corre spond to single se ctions and were normalized for eac h colour se para tely and process ed for presenta tion with ImageJ (NIH Image) and Fiji.
(§3) Peptide visualization and immunohistochemis tr y in brain cortex
(§4) For peptide visua liz ation in undamaged or damaged brains, animals were deeply anes thetized and intra cardially perfus ed with cold PBS and 4% paraformalde hyde in PBS. Brains were post-fixed in the sa m e fixative at 4°C for 24 h and cryoprote cted in 30% suc ros e for 48 h at 4°C. […]

The nature of series [2]: Peptide delivery to brain cortex of undamaged animals. Format: in vivo. Particulars: 3 nmol/g i.v. (retro-orbital), undamaged male mice, sacrificed 30 min after; Fluorescein Avidin D (Fig S5). The procedure: as §1, §2, §3, §4
A short description of series [3]: Infarct volume after photothrombotic permanent ischemia. Type of series: in vivo, mice. Particulars: 24 h, TTC, relative to hemisphere volume. Here is the method:
Permanent focal ischemia was induced in cerebral cortex of adult male and female mice by microvascular photothrombosis as described with modifications. Brain injury involves vascular endothelium damage and platelet activation, followed by microvascular thrombotic occlusion of a particular region selected for illumination using a stereotaxic frame. Coordinates were +0.2 AP, +2 ML relative to Bregma and damaged area corresponded to primary motor and somatosensory cortex. For neuroprotection, a single dose (3 nmol/g) of peptides TMyc or TT1Ct (see below) was administered 1 h after damage initiation. Further details of the procedures, including measurement of infarct volume and evaluation of motor coordination and balance, are detailed as Supplementary material.
Antibodies, chemica ls and recombinant proteins, cell-penetrating peptides , prime rs , commercial as says , experimental models, recombinant DNAs and software ar e des cribe d in the Table S1, included as Supplementary material.
Animal procedures were performed follow ing Europea n Union Directive 2010/63/ EU and were approved by the CS I C and Comunidad de Ma drid (Ref PROEX 276.6/20) ethics committees.
Hous ing facilities were approved by Comunidad de Ma drid (#ES 280790000188) and conform to official regulations. Animals had sta ndard health and immune sta tus and were looked af ter by profes sional caretake rs daily. Ma l e and female mice were kept in groups of up to five in sta ndard IVC cage s while 1–2 pregnant rats occupied sta ndard cage s, always containing bedding and nes ting materials. Animals were under controlled lighting conditions (12 h light cycles ), relative humidity and temperature. Irradiated food and water were provided ad libitum.
We trie d to minimiz e animal suffering and reduce the number of sa cri f i ced animals .
Mi c e model of isc he mia by microv ascular photothr ombosis to study in vivo excitotoxicity This model of permanent focal isc hemia mimics embolic or thrombotic occlus ion of sm a ll ar ter ie s, which is freque ntly found in human stroke, and caus es a focal brain damage with histological and MR I corre lations to human patterns. The procedure was as previously des cribe d with some modific ations . Ma l e and female Ba lb/c OlaHsd mice (23–31 g; 10–16 weeks of age; Envigo Rms , Spain S.L.) were allowed to acc limatize to our facilities for at least 1 week af ter delivery, before isc hemic induction. They were kept with the sa m e cage mates, and daily examined to chec k their health sta tus . Mi c e were anes thetized with isoflurane (5% for induction, 2% for maintenance in oxygen; Abbot Labora tories , Ma drid, Spain) and then placed in a ste reotaxic frame (Naris hige Group, Tokyo, Ja pan). Body temperature was maintained at 36–37°C using a se l f-regulating heating blanket (Cibertec, Ma drid, Spain). A midline sc al p incision was made, the skull was expos ed, and both Bregma and Lambda points were identifie d.
A cold- light (Sc hott KL 2500 LCD; Schott Glas s, Ma inz, Germany) with a fibre optic bundle of 1.5 mm in diameter was centred using a micromanipula tor on the right side , at 0.2 mm anterior and 2.0 mm lateral (+0.2 AP, +2 ML ) relative to Bregma. […] Five minutes later, the brain was illumina ted (600 lms, 3,000 K) through the intact […]
skull for 10 min. Br ain injury encompas se s damage to vas cular endothelium, platelet activation, and subs equent microvascula r thrombotic occlus ion of the irradiate d region. The ar eas underneath this ste reotaxic position that result irradiate d ar e the prima ry motor cortex and the prima ry soma tos ens ory cortex (hindlimb and forelimb). Once completed surgery, the incision was sutured, and mice were allowed to recover. […]

The test system of series [4] is neurons of primary cortical cultures. The series is described as follows: Neuronal viability (MTT) under NMDA excitotoxicity. Format: cell-based, rat. Here is the method: Cultures were prepared from cerebral cortex of 18-day-old Wistar rat embryos, both genders indistinctly included. Unless otherwise indicated, glial growth was inhibited after 7 days in vitro (DIVs), experimental treatments taking place after 12 DIVs. These cultures present a high percentage of neurons, combined with glial cells, mostly astrocytes. To induce excitotoxicity, cultures were incubated with NMDA (100 µM) and its co-agonist glycine (10 µM), herein denoted simply as NMDA, which induce a strong excitotoxic response in mature neurons but have no effect on astrocyte viability,[47]. When indicated, cultures were preincubated for 30 min with indicated concentrations of Tat-derived CPPs before NMDA treatment, peptides being kept in the medium along treatment. Total cell or neuronal viability assessment was established by the thiazolyl blue formazan (MTT) reduction assay. Further details are provided as Supplementary material. […]
skull for 10 min. Br ain injury encompas se s damage to vas cular endothelium, platelet activation, and subs equent microvascula r thrombotic occlus ion of the irradiate d region. The ar eas underneath this ste reotaxic position that result irradiate d ar e the prima ry motor cortex and the prima ry soma tos ens ory cortex (hindlimb and forelimb). Once completed surgery, the incision was sutured, and mice were allowed to recover.
For neuroprote ction experiments, a single dose (3 nmol/g) of peptides TMyc or TT1Ct (> 95% purity; GenScript), solubilized as 2.5 mM solutions in 0.9% NaC l, we retro-orbita lly injected 1 h af ter damage initiation. In order to improve their plas ma sta bility, thes e peptides ar e N- and C-ter modifie d by, respec tive ly, ace tyl and amide groups. Mi c e were not subje cted to other procedures before isc hemia and were naive to drug or peptide treatment. Animals were randomly allocated to the experimental groups and the resea rc hers doing the experiments were blind respec t to treatment. There was not a previous es tima tion of sa mple si z e and experiments were independently car r ied out as indicated. Twenty-four hours af ter damage induction, animals completed the beam walking test and were subs equently sa cri f i ced by cervical disloca tion to meas ure the infarc t volume, as indicated below. Be fore that, brains were se ctioned into se ri al 1-mm-thick coronal sl i ce s using a mouse brain matrix (Stoe lting, Wood Dale, IL, USA), and se ctions were completely sta ine d with 2% TTC at room temperature to visua liz e the cortical infarc ts . For immunohistochemis try, animals were deeply anes thetized 5 or 24 h af ter brain damage and intra cardially perfus ed with cold PBS and 4% paraformalde hyde in PBS as indicated below.
Primary cultures of rat cor tic al neurons to study in vitro excitotoxicity The diss ected cerebral cortices of Wis ta r rat embryos (E18), both genders included, were mechanic ally diss ociated in culture medium (Minimum Esse ntia l Me dium, ME M, Life Technologies) follow ed by se eding of the cell sus pens ion at a dens ity of 1.1x10^6 cells /ml, prepared in the sa m e medium supple me nted with 22.2 mM glucos e, 0.1 mM glutamax, 5% foetal bovine se rum (FBS), 5% donor horse se rum (HS), 100 U/ml penicillin and 100 µg/ml streptomycin. Be fore se eding, the plates were treated overnight at 37°C with 100 µg/ml poly-L-lysine and 4 µg/ml laminin. The cells were incubated at 37°C in an atmosphe re of 5% CO2 and 95% humidity. Generally, glial growth was inhibited af ter 7 days in vitro (DIV s) by adding 10 µM 5 cytos ine β-D-arabinofuranos ide (AraC) and experimental treatments took place af ter 12 DIVs. Excitotoxicity was induced by incubation with NM DA (100 µM) and glycine (10 µM) for the indicated times. As indicated, cultures were preincubated with Tat-derived CP P s before […]
Mi c e had to walk through a narrow beam (1 m × 1 cm × 1 cm) placed 50 cm above the tabletop, going from an aversive stimulus (60-W light bulb) to a black goal box with nes ting material. […]

The nature of series [5]: Beam walking test after photothrombotic ischemia. Particulars: contralateral hind paw slips, beam walking 24 h after insult, 3 nmol/g i.v. 1 h after damage, mean ± SEM, n = 10-12. Format: in vivo, mice.

In the case of `CC[C@H](C)[C@H](NC(=O)[C@H](CCCCN)NC(=O)[C@H](Cc1c[nH]cn1)NC(=O)[C@H](Cc1ccccc1)NC(=O)[C@H](CC(C)C)NC(=O)[C@@H](NC(=O)[C@H](Cc1ccccc1)NC(=O)[C@@H]1CCCN1C(=O)[C@@H]1CCCN1C(=O)[C@H](CCCNC(=N)N)NC(=O)[C@H](CCCNC(=N)N)NC(=O)[C@H](CCCNC(=N)N)NC(=O)[C@H](CCC(N)=O)NC(=O)[C@H](CCCNC(=N)N)NC(=O)[C@H](CCCNC(=N)N)NC(=O)[C@H](CCCCN)NC(=O)[C@H](CCCCN)NC(=O)[C@H](CCCNC(=N)N)NC(=O)CNC(=O)[C@H](Cc1ccc(O)cc1)NC(=O)CCCC[C@@H]1SC[C@@H]2NC(=O)N[C@@H]21)C(C)C)C(=O)N1CCC[C@H]1C(=O)N[C@@H](CC(C)C)C(=O)N[C@@H](CC(=O)O)C(=O)NCC(N)=O` [Bio-TT1Ct] (Biotin-YGRKKRRQRRRPPFVLFHKIPLDG-NH2), the “Time of peptide detection in brain cortex after administration” value in series [1] is reported as “at least 4 h”. Also, in series [2], the “Crossing of the BBB and delivery to cortical cells” value is “able to cross the BBB and efficiently reach most cortical cells in 30 min”.
As for “Ac-YGRKKRRQRRRAEEQKLISEEDLLR-NH2 [TMyc, reference compound]”, the “Infarct volume (%)” value in series [3] (female mice, 3 nmol/g i.v. 1 h after damage, mean, n = 9-10) turned out to be 15 ± 2%; in series [3] (male + female mice, 3 nmol/g i.v. 1 h after damage induction, mean ± SEM, n = 19, n = 20), 17 ± 2%; in series [3] (male mice, 3 nmol/g i.v. 1 h after damage, mean, n = 9-10), 20 ± 1%. Besides, the Neuronal viability is listed as 36% in series [4] (CPPs 0: peptide and NMDA (100 µM) at the same time, viability after 4 h of excitotoxicity, relative to untreated cells (100%), mean, n = 4-8 (Fig S4)); 37% in series [4] (CPPs 30: peptide added 30' post-NMDA (100 µM), viability after 4 h of excitotoxicity, relative to untreated cells (100%), mean, n = 4-8 (Fig S4)); 37% in series [4] (CPPs 60: peptide added 60' post-NMDA (100 µM), viability after 4 h of excitotoxicity, relative to untreated cells (100%), mean, n = 4-8 (Fig S4)); 13 ± 9% in series [4] (dose-response experiment (Fig 3B): peptide 15 µM preincubated 30 min, NMDA 2 h, mean ± SEM, n = 8). The figures for the Number of slips in series [5] (female mice) and in series [5] (male mice) were 5 ± 1 and 10 ± 1, respectively.
